Experiment [1] addresses T1, human recombinant ETA receptors (Homo sapiens, UniProt P25101).
T1 construct: expressed in transfected cells; host or cells: CHO cells (microsomal membranes)
T1 sequence (P25101 21-427): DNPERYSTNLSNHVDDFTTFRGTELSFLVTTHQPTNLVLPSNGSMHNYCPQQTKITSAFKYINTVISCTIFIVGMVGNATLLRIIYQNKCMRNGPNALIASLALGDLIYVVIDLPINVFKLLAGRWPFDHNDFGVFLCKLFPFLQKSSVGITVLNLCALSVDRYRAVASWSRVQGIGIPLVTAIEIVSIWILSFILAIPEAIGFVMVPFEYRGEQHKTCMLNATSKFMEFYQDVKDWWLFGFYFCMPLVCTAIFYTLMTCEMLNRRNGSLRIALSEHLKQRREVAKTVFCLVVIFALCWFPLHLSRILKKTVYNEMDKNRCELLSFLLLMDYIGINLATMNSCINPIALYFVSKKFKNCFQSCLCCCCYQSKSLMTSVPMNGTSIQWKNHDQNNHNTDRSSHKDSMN
Put plainly: Inhibition of [125I]ET-1 binding to membranes from CHO cells carrying human ETA receptors.

The target in experiment [2] is T2, human recombinant ETB receptors (Homo sapiens, UniProt P24530).
T2 construct: expressed in transfected cells; host or cells: CHO cells (microsomal membranes)
T2 sequence (P24530 27-442): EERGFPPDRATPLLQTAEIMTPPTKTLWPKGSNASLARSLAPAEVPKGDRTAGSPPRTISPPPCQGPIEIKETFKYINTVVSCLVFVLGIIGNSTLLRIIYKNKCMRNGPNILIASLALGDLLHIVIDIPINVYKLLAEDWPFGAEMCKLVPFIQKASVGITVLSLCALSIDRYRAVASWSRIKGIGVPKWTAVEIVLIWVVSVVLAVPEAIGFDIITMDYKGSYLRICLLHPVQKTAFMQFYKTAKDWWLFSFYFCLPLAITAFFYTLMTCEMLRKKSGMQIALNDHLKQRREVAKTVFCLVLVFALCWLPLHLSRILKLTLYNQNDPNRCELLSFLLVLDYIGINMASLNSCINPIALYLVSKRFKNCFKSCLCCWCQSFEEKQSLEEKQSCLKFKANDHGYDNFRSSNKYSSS
Put plainly: Inhibition of [125I]ET-1 binding to membranes from CHO cells carrying human ETB receptors. Further: 2.5% DMSO. Here is the method: 1) Inhibition of Endothelin Binding to Membranes from CHO Cells Carrying Human ET Receptors:
For competition binding studies, membranes of CHO cells expressing human recombinant ETA or ETB receptors were used. Microsomal membranes from recombinant CHO cells were prepared and the binding assay made as previously described (Breu V., et al, FEBS Lett 1993; 334:210).
The assay is performed in 200 uL 50 mM Tris/HCl buffer, pH 7.4, including 25 mM MnCl2, 1 mM EDTA and 0.5% (w/v) BSA in polypropylene microtiter plates. […]. […] After 2 h, the membranes were filtered on filterplates containing GF/C filters (Unifilterplates from Canberra Packard S. A. Zürich, Switzerland). To each well, 50 uL of scintillation cocktail is added (MicroScint 20, Canberra Packard S. A. Zürich, Switzerland) and the filter plates counted in a microplate counter (TopCount, Canberra Packard S. A. Zürich, Switzerland).
All the test compounds were dissolved, diluted and added in DMSO. […] […].

In experiment [3] the target is T3, ETA receptors (rat aortic rings) (Rattus norvegicus, UniProt P26684).
T3 construct: The thoracic aorta or trachea were excised, dissected and cut in 3-5 mm rings; from tissue; host or cells: thoracic aorta rings of adult Wistar rats, endothelium removed
T3 sequence (P26684 21-426): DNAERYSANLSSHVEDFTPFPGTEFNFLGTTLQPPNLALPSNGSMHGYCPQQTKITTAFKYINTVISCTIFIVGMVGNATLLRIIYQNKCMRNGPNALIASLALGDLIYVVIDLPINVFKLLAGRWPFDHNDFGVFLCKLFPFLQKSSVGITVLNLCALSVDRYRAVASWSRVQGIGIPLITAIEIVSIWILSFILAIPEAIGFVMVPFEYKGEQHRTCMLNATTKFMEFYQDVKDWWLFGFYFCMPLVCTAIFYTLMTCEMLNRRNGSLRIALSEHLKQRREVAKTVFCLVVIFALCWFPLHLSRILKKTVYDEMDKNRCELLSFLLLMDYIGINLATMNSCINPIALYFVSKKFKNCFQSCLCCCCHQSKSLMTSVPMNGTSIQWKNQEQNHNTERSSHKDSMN
Put plainly: Inhibition of endothelin-1-induced contraction of isolated rat aortic rings. The experiment is classed as cell-based. Particulars: read-out: pA2 value Aorta (converted). As to the method: (§1) 2) Inhibition of Endothelin-Induced Contractions on Isolated Rat Aortic Rings (ETA Receptors) and Rat Tracheal Rings (ETB Receptors):
(§2) The functional inhibitory potency of the endothelin antagonists was assessed by their inhibition of the contraction induced by endothelin-1 on rat aortic rings (ETA receptors) and of the contraction induced by sarafotoxin S6c on rat tracheal rings (ETB receptors). Adult Wistar rats were anesthetized and exsanguinated. The thoracic aorta or trachea were excised, dissected and cut in 3-5 mm rings. The endothelium/epithelium was removed by gentle rubbing of the intimal surface. Each ring was suspended in a 10 mL isolated organ bath filled with Krebs-Henseleit solution (in mM; NaCl 115, KCl 4.7, MgSO4 1.2, KH2PO4 1.5, NaHCO3 25, CaCl2 2.5, glucose 10) kept at 37° C. and gassed with 95% O2 and 5% CO2. The rings were connected to force transducers and isometric tension was recorded (EMKA Technologies SA, Paris, France). The rings were stretched to a resting tension of 3 g (aorta) or 2 g (trachea). […] The functional inhibitory potency of the test compound was assessed by calculating the concentration ratio, i.e. the shift to the right of the EC50 induced by different concentrations of test compound. […]

The target in experiment [4] is T4, ETB receptors (rat tracheal rings) (Rattus norvegicus, UniProt P21451).
T4 construct: The thoracic aorta or trachea were excised, dissected and cut in 3-5 mm rings; from tissue; host or cells: tracheal rings of adult Wistar rats, epithelium removed
T4 sequence (P21451 27-442): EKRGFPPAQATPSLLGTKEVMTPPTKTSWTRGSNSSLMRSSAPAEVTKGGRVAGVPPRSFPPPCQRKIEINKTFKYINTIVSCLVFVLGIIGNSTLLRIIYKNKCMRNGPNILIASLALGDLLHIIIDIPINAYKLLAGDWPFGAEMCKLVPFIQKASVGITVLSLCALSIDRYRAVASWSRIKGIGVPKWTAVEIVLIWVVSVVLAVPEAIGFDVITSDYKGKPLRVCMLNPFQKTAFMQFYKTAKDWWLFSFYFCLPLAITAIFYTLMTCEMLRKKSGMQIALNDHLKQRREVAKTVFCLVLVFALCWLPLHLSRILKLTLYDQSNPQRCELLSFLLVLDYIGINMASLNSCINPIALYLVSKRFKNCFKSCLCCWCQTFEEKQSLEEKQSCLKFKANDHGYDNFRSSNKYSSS
Put plainly: Inhibition of sarafotoxin S6c-induced contraction of isolated rat tracheal rings. The experiment is classed as cell-based. Particulars: contraction induced by sarafotoxin S6c, 10 min incubation, read-out: pA2 value Trachea (converted). As to the method:
as §1, §2

pIC50: −log10 of the molar value.

Regarding `O=S(=O)(NCCCO)Nc1ncnc(OCCOc2ncc(Br)cn2)c1-c1ccc(Br)cc1` [Example 1, 1-hydroxypropanesulfamic acid[6-(2-(5-bromopyrimid-2-yloxy)-ethoxy)-5-(4-bromophenyl)-pyrimidin-4-yl]-amide], the pIC50 (as a rule, the IC50 on a negative log10 scale, so that one unit is a factor of ten) in experiment [1] was 9.22; in experiment [2], 6.49. For the same compound, the Kb in experiment [3] was 100 nM; in experiment [4] it was 3160 nM.
Consider `O=C(O)CCNS(=O)(=O)Nc1ncnc(OCCOc2ncc(Br)cn2)c1-c1ccc(Br)cc1` [Example 2], for which the negative logarithm of the IC50 (pIC50) is 9.18 in experiment [1] and 6.48 in experiment [2]. For the same compound, the Kb in experiment [3] is 6.31 nM; in experiment [4], 794 nM.

(Values after US7868012B2, “Sulfamides as endothelin receptor antagonists for the treatment of cardiovascular diseases” (Actelion Pharmaceuticals, Ltd., priority 2004, dated 2011).)
